Experimental data from PMC5429769, “Rational development of Stafib-2: a selective, nanomolar inhibitor of the transcription factor STAT5b” (Scientific Reports, 2017).
“Also recorded” adds a separate entry of the source.

Key:
STAT5b-GFP [1] = assay: STAT5b Tyr699 phosphorylation in STAT5b-GFP-transfected K562 cells (Western blot); assay type: cell-based, human; conditions: STAT5b-GFP-transfected K562 cells, 4 h, result in words
STAT5a-GFP = assay: STAT5a Tyr694 phosphorylation in STAT5a-GFP-transfected K562 cells (Western blot); assay type: cell-based, human; conditions: 4 h, result in words
STAT5b-GFP [2] = target: T1, STAT5b-GFP (Homo sapiens, UniProt P51692); assay: STAT5b Tyr699 phosphorylation in STAT5b-GFP-transfected K562 cells (Western blot); assay type: cell-based; conditions: STAT5b-GFP-transfected K562 cells
T1 sequence (P51692 1-787): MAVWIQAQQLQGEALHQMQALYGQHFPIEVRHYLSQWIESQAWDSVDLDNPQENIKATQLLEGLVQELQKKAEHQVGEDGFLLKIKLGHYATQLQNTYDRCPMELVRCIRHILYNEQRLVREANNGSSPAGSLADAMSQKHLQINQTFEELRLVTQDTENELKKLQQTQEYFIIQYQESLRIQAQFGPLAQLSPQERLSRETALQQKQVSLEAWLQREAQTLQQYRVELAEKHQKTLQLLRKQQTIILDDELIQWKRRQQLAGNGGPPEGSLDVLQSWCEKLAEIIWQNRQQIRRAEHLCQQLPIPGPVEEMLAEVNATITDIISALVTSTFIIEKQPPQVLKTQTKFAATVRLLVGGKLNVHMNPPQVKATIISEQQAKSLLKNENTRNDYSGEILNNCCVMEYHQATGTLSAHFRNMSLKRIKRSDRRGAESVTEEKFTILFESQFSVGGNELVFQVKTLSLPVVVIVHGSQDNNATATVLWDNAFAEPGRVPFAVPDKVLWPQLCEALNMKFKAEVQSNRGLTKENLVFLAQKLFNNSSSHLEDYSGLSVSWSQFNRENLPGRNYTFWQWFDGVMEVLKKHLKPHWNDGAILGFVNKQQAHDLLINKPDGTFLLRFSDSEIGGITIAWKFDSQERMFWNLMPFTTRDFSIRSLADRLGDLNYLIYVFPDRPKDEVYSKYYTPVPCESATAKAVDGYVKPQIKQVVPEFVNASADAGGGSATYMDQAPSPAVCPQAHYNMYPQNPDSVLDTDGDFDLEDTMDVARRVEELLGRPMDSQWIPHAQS

endogenous STAT5 = assay: Tyrosine phosphorylation of endogenous total STAT5 in STAT5a/b-GFP-transfected K562 cells; assay type: cell-based, human; conditions: result in words
K562 cells = assay: Apoptosis assay (Annexin V / 7-AAD flow cytometry), K562 cells; assay type: cell-based, human; conditions: untransfected K562 cells, 48 h, result in words
MDA-MB-231 cells = assay: Apoptosis assay (Annexin V / 7-AAD flow cytometry), MDA-MB-231 cells; assay type: cell-based; conditions: MDA-MB-231 cells (STAT5-independent), 48 h, result in words
STAT5b SH2 domain = target: T2, STAT5b SH2 domain (Homo sapiens, UniProt P51692); assay: Fluorescence polarization assay, STAT5b SH2 domain; assay type: binding; conditions: for Ki: converted from IC50 using the published equation, n = 3; for Ki / IC50: mean ± s.d.; for IC50: fluorescence polarization, three independent experiments
T2 sequence (P51692 1-787): T1 sequence (P51692 1-787)

STAT5a SH2 domain = target: T3, STAT5a SH2 domain (Homo sapiens, UniProt P42229); assay: Fluorescence polarization assay, STAT5a SH2 domain; assay type: binding; conditions: mean ± s.d.; for Ki: converted from IC50 using the published equation, n = 3; for IC50: fluorescence polarization, three independent experiments
T3 sequence (P42229 1-794): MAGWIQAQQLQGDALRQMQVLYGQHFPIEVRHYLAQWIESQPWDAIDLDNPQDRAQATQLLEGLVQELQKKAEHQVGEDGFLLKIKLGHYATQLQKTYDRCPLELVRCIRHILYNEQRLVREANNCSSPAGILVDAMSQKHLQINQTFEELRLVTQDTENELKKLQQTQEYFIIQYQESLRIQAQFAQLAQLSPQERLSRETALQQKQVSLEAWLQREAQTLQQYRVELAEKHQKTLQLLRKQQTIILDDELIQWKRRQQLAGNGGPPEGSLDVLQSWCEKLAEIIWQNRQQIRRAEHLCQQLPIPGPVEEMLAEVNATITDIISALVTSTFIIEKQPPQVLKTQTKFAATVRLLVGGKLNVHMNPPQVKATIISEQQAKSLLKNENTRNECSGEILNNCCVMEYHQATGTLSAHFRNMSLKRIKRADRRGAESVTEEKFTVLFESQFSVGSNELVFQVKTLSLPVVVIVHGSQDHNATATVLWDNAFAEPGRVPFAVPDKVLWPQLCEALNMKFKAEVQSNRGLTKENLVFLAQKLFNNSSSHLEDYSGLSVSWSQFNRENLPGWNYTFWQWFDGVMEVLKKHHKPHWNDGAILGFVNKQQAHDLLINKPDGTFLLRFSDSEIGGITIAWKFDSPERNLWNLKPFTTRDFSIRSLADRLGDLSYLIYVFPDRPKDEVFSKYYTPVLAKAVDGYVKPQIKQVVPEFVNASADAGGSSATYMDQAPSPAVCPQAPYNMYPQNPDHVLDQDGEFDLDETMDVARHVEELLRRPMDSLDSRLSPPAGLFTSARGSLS

| SMILES | inhibition of STAT5a phosphorylation (STAT5a-GFP) | Ki (STAT5b SH2 domain) [nM] | IC50 (STAT5b SH2 domain) [nM] | Ki (STAT5a SH2 domain) [µM] | IC50 (STAT5a SH2 domain) [µM] | other results |
| --- | --- | --- | --- | --- | --- | --- |
| CC(C)(C)C(=O)OCOP(=O)(Cc1ccccc1CP(=O)(OCOC(=O)C(C)(C)C)OCOC(=O)C(C)(C)C)OCOC(=O)C(C)(C)C [compound 9, reference compound] | lack of inhibition |  |  |  |  | inhibition of STAT5b phosphorylation (STAT5b-GFP [1]): lack of inhibition |
| CC(C)(C)C(=O)OCOP(=O)(OCOC(=O)C(C)(C)C)Oc1ccc(CNC(=O)COc2ccc(C(=O)Nc3ccc(Oc4ccccc4)cc3)cc2)cc1OP(=O)(OCOC(=O)C(C)(C)C)OCOC(=O)C(C)(C)C [compound 8, ((((4-((2-(4-((4-Phenoxyphenyl)carbamoyl)phenoxy)acetamido)methyl)-1,2-phenylene)bis(oxy))bis(oxo-l5-phosphanetriyl))tetrakis(oxy))tetrakis(methylene) tetrakis(2,2-dimethylpropanoate)] | not significantly reduced; also recorded: not inhibited |  |  |  |  | fold more active against STAT5b phosphorylation than the pivaloyloxymethylesters of 2 and of Capstafin (STAT5b-GFP [2]): 2.5 fold; inhibition of STAT5b phosphorylation (STAT5b-GFP [2]; 4 h, result in words): Dose-dependent inhibition; inhibition of STAT5a phosphorylation (STAT5a-GFP; listed as Pomstafib-2): without significantly affecting; inhibition of phosphorylation of endogenous STAT5 (endogenous STAT5): inhibited; apoptotic rate (K562 cells): dose-dependent increase; also recorded: increased; apoptotic rate (MDA-MB-231 cells): does not increase; also recorded: not increased |
| O=C(COc1ccc(C(=O)Nc2ccccc2)cc1)NCc1ccc(OP(=O)(O)O)c(OP(=O)(O)O)c1 [compound 5] |  | 110 ± 10 | 280 ± 10 | 4.8 ± 0.1 | 9.7 ± 0.3 |  |
| O=C(COc1ccc2cc(C(=O)Nc3ccc(Oc4ccccc4)cc3)ccc2c1)NCc1ccc(OP(=O)(O)O)c(OP(=O)(O)O)c1 [compound 3] |  | 93 ± 3 | 190 ± 10 | 2.9 ± 0.1 | 5.8 ± 0.3 | fold less active than 2 (STAT5b SH2 domain; STAT5b Ki relative to 2): 2 fold |
| O=C(COc1ccc(C(=O)Nc2ccc(Oc3ccccc3)cc2)cc1)NCc1ccc(O)c(O)c1 [compound 7] |  |  |  |  |  | STAT5b inhibition (STAT5b SH2 domain; at 80 µM): lack of activity; also recorded: no inhibition at 80 µM |
